Test results as given in patent US6737431B2 (Bristol-Myers Squibb Company, priority 2002, dated 2004).

Columns and labels:
melatonin ML1a receptor = molecular target: T1, melatonin ML1a receptor (Homo sapiens, UniProt P48039); assay: Melatonergic receptor binding, 2-[125I]-iodomelatonin, ML1a; settings: NIH-3T3 membranes, 0.1 nM 2-[125I]-iodomelatonin, 37° C. 1 hour
T1 construct: expressed in transfected cells; membrane homogenates
Procedure: (§1) Melatonergic Receptor Binding Activity
(§2) (a) TME=50 mM Tris buffer containing 12.5 mM MgCl2, and 2 mM EDTA, pH 7.4 at 37° C., with concentrated HCl.
(§3) (b) Wash buffer: 20 mM Tris base containing 2 mM MgCl2, pH 7.4 at room temperature.
(§4) (c) 10^−4 M melatonin (10^−5 M final concentration).
(d) 2-[^125I]-iodomelatonin ML1a, 0.1 nM final concentration.
(§5) 2. Membrane Homogenates: The melatonin ML1a and ML1b receptors cDNA were individually subcloned into pcDNA3 and introduced into NIH-3T3 cells using Lipofectamine. Transformed NIH-3T3 cells resistant to geneticin (G-418) were isolated, and single colonies expressing high levels of 2[^125I]-iodomelatonin binding were isolated. Cells are maintained in DMEM supplemented with 10% calf serum and G-418 (0.5 g/liter). Cells are grown to confluency in T-175 flasks, scraped using Hank's balanced salt solution, and frozen at −80° C. For preparing membrane homogenates, pellets are thawed on ice, and re-suspended in TME buffer in the presence of 10 μg/ml aprotinin and leupeptin, and 100 μM phenylmethylsulfonylfluoride. The cells were then homogenized using a dounce homogenizer, and centrifuged. The resulting pellet was re-suspended with dounce homogenizer in TME (supplemented with the above protease inhibitors) and frozen. On the day of assay, a small aliquot was thawed on ice and re-suspended in the ice cold TME (1:50-1:100 v/v) and held on ice until assayed.
(§6) 3. Incubation: 37° C. for 1 hour. Reaction is terminated by filtration. Filters were washed 3 times.
(§7) 4. References: Reppert, S. M. et al., Neuron, 13, p. 1177-1185 (1994); and Reppert, S. M. et al., Proc. Natl. Acad. Sci. USA, 92, p. 8734-8738 (1995).
(§8) The compounds of the present invention have affinity for receptors of the endogenous pineal hormone, melatonin, as determined in receptor binding assays described above in Tables I to III for the ML1a and ML1b (human) receptors. Melatonin is involved in the regulation of a variety of biological rhythms and exerts its biological effects via interaction with specific receptors. There is evidence that administration of melatonin agonists are of clinical utility in the treatment of various conditions regulated by melatonin activity. Such conditions include depression, jet-lag, work-shift syndrome, sleep disorders, glaucoma, some disorders associated with reproduction, cancer benign prostatic hyperplasia, immune disorders, and neuroendocrine disorders.

melatonin ML1b receptor = molecular target: T2, melatonin ML1b receptor (Homo sapiens, UniProt P49286); assay: Melatonergic receptor binding, 2-[125I]-iodomelatonin, ML1b; settings: NIH-3T3 membranes, 0.2 nM 2-[125I]-iodomelatonin, 37° C. 1 hour
T2 construct: expressed in transfected cells; membrane homogenates
T2 sequence (P49286 1-362): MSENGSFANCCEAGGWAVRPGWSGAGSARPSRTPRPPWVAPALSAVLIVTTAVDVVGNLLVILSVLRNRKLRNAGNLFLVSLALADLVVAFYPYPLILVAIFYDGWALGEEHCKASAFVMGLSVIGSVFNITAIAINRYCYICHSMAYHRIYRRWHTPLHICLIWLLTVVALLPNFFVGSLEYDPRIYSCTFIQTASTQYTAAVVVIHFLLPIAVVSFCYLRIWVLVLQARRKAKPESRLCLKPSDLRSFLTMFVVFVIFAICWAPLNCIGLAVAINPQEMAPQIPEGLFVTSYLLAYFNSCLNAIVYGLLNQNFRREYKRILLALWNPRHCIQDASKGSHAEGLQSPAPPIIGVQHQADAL
Procedure: as §1, §2, §3, §4
(e) 2-[^125I]-iodomelatonin ML1b, 0.2 nM final concentration.
as §5, §6, §7, §8

T1 sequence (P48039 whole entry): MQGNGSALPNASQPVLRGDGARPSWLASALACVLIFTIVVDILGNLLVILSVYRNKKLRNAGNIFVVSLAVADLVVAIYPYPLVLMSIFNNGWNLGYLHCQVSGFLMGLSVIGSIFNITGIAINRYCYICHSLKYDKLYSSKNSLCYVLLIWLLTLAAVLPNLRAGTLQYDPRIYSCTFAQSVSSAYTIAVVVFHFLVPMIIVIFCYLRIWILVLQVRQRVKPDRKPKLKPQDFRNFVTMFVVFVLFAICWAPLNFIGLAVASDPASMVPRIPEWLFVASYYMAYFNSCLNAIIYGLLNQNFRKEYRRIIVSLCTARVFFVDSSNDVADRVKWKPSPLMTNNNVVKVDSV

| Compound | IC50 (melatonin ML1a receptor; Table II) [nM] | IC50 (melatonin ML1b receptor; Table II) [nM] | IC50 (melatonin ML1a receptor; Table III) [nM] | IC50 (melatonin ML1b receptor; Table III) [nM] |
| --- | --- | --- | --- | --- |
| C=Cc1cc(CCCNC(=O)c2ccccc2)c2oc(CC)nc2c1 [Example 71, N-[3-(2-Ethyl-5-vinylbenzoxazol-7-yl)propyl]benzamide] | > 250 | > 250 | – | – |
| C=Cc1cc(CCCNC(=O)C2CC2)c2oc(CC)nc2c1 [Example 72, Cyclopropyl-N-[3-(2-ethyl-5-vinylbenzoxazol-7-yl)propyl]carboxamide] | > 250 | > 250 | – | – |
| CCc1nc2ccc(-c3ccco3)c(CCCNC(C)=O)c2o1 [Example 73, N-[3-(2-Ethyl-6-(2-furyl)benzoxazol-7-yl)propyl]acetamide] | < 10 | < 10 | – | – |
| CCc1nc2ccc(-c3ccco3)c(CCCNC(=O)C3CC3)c2o1 [Example 75, Cyclopropyl-N-[3-(2-ethyl-6-(2-furyl)benzoxazol-7-yl)propyl]carboxamide] | 10 to 250 | < 10 | – | – |
| CCc1nc2cccc([C@@H]3C[C@H]3CNC(C)=O)c2o1 [Example 76, N-{[(1R,2R)-2-(2-Ethylbenzoxazol-7-yl)cyclopropyl]methyl}acetamide] | – | – | < 10 | < 10 |
| CCC(=O)NC[C@@H]1C[C@H]1c1cccc2nc(CC)oc12 [Example 77, N-{[(1R,2R)-2-(2-Ethylbenzoxazol-7-yl)cyclopropyl]methyl}propanamide] | – | – | < 10 | < 10 |
| CCCC(=O)NC[C@@H]1C[C@H]1c1cccc2nc(CC)oc12 [Example 78, N-{[(1R,2R)-2-(2-Ethylbenzoxazol-7-yl)cyclopropyl]methyl}butanamide] | – | – | < 10 | < 10 |
| CCc1nc2cccc([C@@H]3C[C@H]3CNC(=O)C(C)C)c2o1 [Example 79, N-{[(1R,2R)-2-(2-Ethylbenzoxazol-7-yl)cyclopropyl]methyl}-2-methylpropanamide] | – | – | < 10 | < 10 |
| CCc1nc2cccc([C@@H]3C[C@H]3CNC(=O)C3CC3)c2o1 [Example 80, N-{[(1R,2R)-2-(2-Ethylbenzoxazol-7-yl)cyclopropyl]methyl}cyclopropylcarboxamide] | – | – | < 10 | < 10 |
| CCNC(=O)NC[C@@H]1C[C@H]1c1cccc2nc(CC)oc12 [Example 81, N-{[(1R,2R)-2-(2-Ethylbenzoxazol-7-yl)cyclopropyl]methyl}(ethylamino)carboxamide] | – | – | < 10 | < 10 |
| CCCc1nc2cccc([C@@H]3C[C@H]3CNC(C)=O)c2o1 [Example 82, N-{[(1R,2R)-2-(2-Propylbenzoxazol-7-yl)cyclopropyl]methyl}acetamide] | – | – | < 10 | < 10 |
| CC(=O)NC[C@@H]1C[C@H]1c1cccc2nc(C(C)C)oc12 [Example 83, N-({(1R,2R)-2-[2-(Methylethyl)benzoxazol-7-yl]cyclopropyl}methyl)acetamide] | – | – | 10 to 250 | < 10 |
| CCCc1nc2cccc([C@@H]3C[C@H]3CNC(=O)CC)c2o1 [Example 84, N-{[(1R,2R)-2-(2-Propylbenzoxazol-7-yl)cyclopropyl]methyl}propanamide] | – | – | < 10 | < 10 |
| CCC(=O)NC[C@@H]1C[C@H]1c1cccc2nc(C(C)C)oc12 [Example 85, N-({(1R,2R)-2-[2-(Methylethyl)benzoxazol-7-yl]cyclopropyl}methyl)propanamide] | – | – | < 10 | < 10 |
| CCCC(=O)NC[C@@H]1C[C@H]1c1cccc2nc(CCC)oc12 [Example 86, N-{[(1R,2R)-2-(2-Propylbenzoxazol-7-yl)cyclopropyl]methyl}butanamide] | – | – | < 10 | < 10 |
| CCCC(=O)NC[C@@H]1C[C@H]1c1cccc2nc(C(C)C)oc12 [Example 87, N-({(1R,2R)-2-[2-(Methylethyl)benzoxazol-7-yl]cyclopropyl}methyl)butanamide] | – | – | < 10 | < 10 |
| CCCc1nc2cccc([C@@H]3C[C@H]3CNC(=O)C3CC3)c2o1 [Example 90, N-{[(1R,2R)-2-(2-Propylbenzoxazol-7-yl)cyclopropyl]methyl}cyclopropylcarboxamide] | – | – | < 10 | < 10 |
| CC(C)c1nc2cccc([C@@H]3C[C@H]3CNC(=O)C3CC3)c2o1 [Example 91, N-({(1R,2R)-2-[2-(Methylethyl)benzoxazol-7-yl]cyclopropyl}methyl)cyclopropylcarboxamide] | – | – | < 10 | < 10 |
| CCCc1nc2cccc([C@@H]3C[C@H]3CNC(=O)NCC)c2o1 [Example 92, N-{[(1R,2R)-2-(2-Propylbenzoxazol-7-yl)cyclopropyl]methyl}(ethylamino)carboxamide] | – | – | < 10 | < 10 |
| CCNC(=O)NC[C@@H]1C[C@H]1c1cccc2nc(C(C)C)oc12 [Example 93, N-({(1R,2R)-2-[2-(Methylethyl)benzoxazol-7-yl]cyclopropyl}methyl)(ethylamino)carboxamide] | – | – | 10 to 250 | 10 to 250 |
| N-({(1R,2R)-2-[2-(5-Phenylbutyl)benzoxazol-7-yl]cyclopropyl}methyl)-2-methylpropanamide [Example 97] | – | – | < 10 | < 10 |
| N-({(1R,2R)-2-[2-(5-Phenylbutyl)benzoxazol-7-yl]cyclopropyl}methyl)acetamide [Example 94] | – | – | < 10 | < 10 |
| N-({(1R,2R)-2-[2-(5-Phenylbutyl)benzoxazol-7-yl]cyclopropyl}methyl)butanamide [Example 96] | – | – | < 10 | < 10 |
| N-({(1R,2R)-2-[2-(5-Phenylbutyl)benzoxazol-7-yl]cyclopropyl}methyl)cyclopropylcarboxamide [Example 98] | – | – | < 10 | < 10 |
| N-({(1R,2R)-2-[2-(5-Phenylbutyl)benzoxazol-7-yl]cyclopropyl}methyl)propanamide [Example 95] | – | – | < 10 | < 10 |
| N-({(1R,2R)-2-[2-(Methylethyl)benzoxazol-7-yl]cyclopropyl}methyl)-3-methylbutanamide [Example 89] | – | – | < 10 | < 10 |
